Reference: patent US12207654B2, “Bactericidal agent for agricultural or horticultural use, plant disease control method, and product for plant disease control use” (Kureha Corporation, priority 2019, dated 2025)
Several values for one entry are separate records, joined by “and”; a condition that tells them apart may be missing. Equal values may be shown once. Read-outs that look alike come from different tables or passages of the source.

What was measured:
Pyrenophora graminea = assay: In vitro antimicrobial activity test on PDA plate media (colony diameter); assay type: cell-based; settings: used alone
[1] = tested on: Alternaria alternata apple pathotype; assay: as above; assay type: cell-based; settings: used alone
Glomerella cingulata = assay: as above; assay type: cell-based
Microdocum nivale = assay: as above; assay type: cell-based; settings: used alone
Gaeumannomyces graminis = assay: as above; assay type: cell-based; settings: used alone
Fusarium graminearum = assay: microbe, parasite or virus in culture; assay type: cell-based
Penicillium italicum = assay: In vitro antimicrobial activity test on PDA plate media (colony diameter); assay type: cell-based
Cercospora beticola = assay: In vitro antimicrobial activity test in 96-well microplate (absorbance at 620 nm); assay type: cell-based; settings: used alone
Fusarium fujikuroi = assay: In vitro antimicrobial activity test on PDA plate media (colony diameter); assay type: cell-based; settings: used alone
[2] = tested on: wheat leaf rust (Puccinia recondita); assay: Controlling effect test against wheat leaf rust (foliar spray on potted wheat seedlings); assay type: in vivo; settings: sprayed alone
[3] = Pyrenophora graminea, 0.13 ppm, read-out: Actual fungal growth inhibition rate (%)
[4] = Pyrenophora graminea, 0.50 ppm, read-out: Actual fungal growth inhibition rate (%)
[5] = Alternaria alternata, 0.13 ppm, read-out: Actual fungal growth inhibition rate (%)
[6] = Colletotrichum gloeosporioides, used alone, 0.50 ppm, read-out: Actual fungal growth inhibition rate (%)
[7] = Fusarium graminearum, read-out: Actual fungal growth inhibition rate (%)
[8] = Gaeumannomyces graminis, 0.13 ppm, read-out: Actual fungal growth inhibition rate (%)
[9] = Gaeumannomyces graminis, 0.50 ppm, read-out: Actual fungal growth inhibition rate (%)
[10] = Colletotrichum gloeosporioides, used alone, 0.01 ppm, read-out: Actual fungal growth inhibition rate (%)
[11] = Colletotrichum gloeosporioides, used alone, 0.13 ppm, read-out: Actual fungal growth inhibition rate (%)
[12] = Gaeumannomyces graminis, 0.002 ppm, read-out: Actual fungal growth inhibition rate (%)

## CO/N=C(/C1=NOCCO1)c1ccccc1Oc1ncnc(Oc2ccccc2Cl)c1F [Fluoxastrobin, fluoxastrobin, reference compound]
Pyrenophora graminea; [3]
  inhibition at 0.13 ppm: 51%
Pyrenophora graminea; [4]
  inhibition at 0.5 ppm: 55%
Pyrenophora graminea; 0.13 ppm
  Actual fungal growth inhibition rate (%): 46%
Pyrenophora graminea; 0.50 ppm
  Actual fungal growth inhibition rate (%): 59%
[1]; [5]
  inhibition at 0.13 ppm: 48%
[1]; Alternaria alternata, 0.50 ppm, read-out: Actual fungal growth inhibition rate (%)
  inhibition at 0.5 ppm: 43%
Glomerella cingulata; [6]
  inhibition at 0.5 ppm: 48%
Microdocum nivale; 0.01 ppm, read-out: Actual fungal growth inhibition rate (%)
  inhibition at 0.01 ppm: 96%

## CC(O)(Cn1cncn1)c1ccc(Oc2ccc(Cl)cc2)cc1C(F)(F)F (stereo not drawn) [Mefentrifluconazole, mefentrifluconazole, reference compound]
Gaeumannomyces graminis; 0.002 ppm
  Actual fungal growth inhibition rate (%): 0%
Gaeumannomyces graminis; 0.01 ppm
  Actual fungal growth inhibition rate (%): 0%
Gaeumannomyces graminis; 0.03 ppm
  Actual fungal growth inhibition rate (%): 19%
[1]; 0.50 ppm
  Actual fungal growth inhibition rate (%): 62%
Glomerella cingulata; Glomerella cingulata, single chemical at 0.13 ppm
  Actual fungal growth inhibition rate (%): 74%
Glomerella cingulata; used alone, 0.01 ppm
  Actual fungal growth inhibition rate (%): 17%
Glomerella cingulata; used alone, 0.03 ppm
  Actual fungal growth inhibition rate (%): 41%
Glomerella cingulata; used alone, 0.50 ppm
  Actual fungal growth inhibition rate (%): 77%
Microdocum nivale; 0.01 ppm
  Actual fungal growth inhibition rate (%): 1%

## OC(Cc1ccccc1Cl)(Cn1nc[nH]c1=S)C1(Cl)CC1 (stereo not drawn) [Prothioconazole, prothioconazole, reference compound]
Fusarium graminearum; [7]
  inhibition at 0.01 ppm: 1%
  inhibition at 0.03 ppm: 19%
Pyrenophora graminea; [4]
  inhibition at 0.5 ppm: 54%
Gaeumannomyces graminis; [8]
  inhibition at 0.13 ppm: 0%
Gaeumannomyces graminis; [9]
  inhibition at 0.5 ppm: 36%
[1]; [5]
  inhibition at 0.13 ppm: 48%
Glomerella cingulata; [10]
  inhibition at 0.01 ppm: 0%
Glomerella cingulata; Colletotrichum gloeosporioides, used alone, 0.03 ppm, read-out: Actual fungal growth inhibition rate (%)
  inhibition at 0.03 ppm: 1%
Glomerella cingulata; [11]
  inhibition at 0.13 ppm: 0%
Glomerella cingulata; [6]
  inhibition at 0.5 ppm: 24%
Penicillium italicum; Penicillium italicum, used alone, 0.13 ppm, read-out: Actual fungal growth inhibition rate (%)
  inhibition at 0.13 ppm: 18%
Penicillium italicum; Penicillium italicum, single chemical at 0.13 ppm, read-out: Actual fungal growth inhibition rate (%)
  inhibition at 0.13 ppm: 19%
Microdocum nivale; 0.13 ppm, read-out: Actual fungal growth inhibition rate (%)
  inhibition at 0.13 ppm: 13%

## CC(C)c1ccc(Cl)cc1CN(C(=O)c1c(C(F)F)nn(C)c1F)C1CC1 [Isoflucypram, isoflucypram]
Cercospora beticola; 0.008 ppm
  Actual growth inhibition rate: 7%
Cercospora beticola; 0.04 ppm
  Actual growth inhibition rate: 3%
Cercospora beticola; 0.2 ppm
  Actual growth inhibition rate: 0%
Cercospora beticola; 1.0 ppm
  Actual growth inhibition rate: 48%

## CC(C)CC(C)c1sccc1NC(=O)c1cn(C)nc1C(F)(F)F (stereo not drawn) [Penthiopyrad, penthiopyrad]
Fusarium graminearum; [7]
  inhibition at 1.25 ppm: 7%
  inhibition at 5 ppm: 22%
  inhibition at 20 ppm: 28%

## CC1(C)CCC(Cc2ccc(Cl)cc2)C1(O)Cn1cncn1 (stereo not drawn) [Metconazole, metconazole, reference compound]
Glomerella cingulata; Colletotrichum gloeosporioides, used alone, 0.001 ppm, read-out: Actual fungal growth inhibition rate (%)
  inhibition at 0.001 ppm: 4%
Glomerella cingulata; Colletotrichum gloeosporioides, used alone, 0.003 ppm, read-out: Actual fungal growth inhibition rate (%)
  inhibition at 0.003 ppm: 7%
Glomerella cingulata; [10]
  inhibition at 0.01 ppm: 28%

## CON=C(C(=O)OC)c1ccccc1CON=C(C)c1cccc(C(F)(F)F)c1 [Trifloxystrobin, trifloxystrobin, reference compound]
Pyrenophora graminea; [3]
  inhibition at 0.13 ppm: 54%
Pyrenophora graminea; [4]
  inhibition at 0.5 ppm: 54%
Pyrenophora graminea; 0.50 ppm
  Actual fungal growth inhibition rate (%): 55%
Gaeumannomyces graminis; [12]
  inhibition at 0.002 ppm: 8%
Gaeumannomyces graminis; Gaeumannomyces graminis, 0.03 ppm, read-out: Actual fungal growth inhibition rate (%)
  inhibition at 0.03 ppm: 5%
Gaeumannomyces graminis; [8]
  inhibition at 0.13 ppm: 11%
Gaeumannomyces graminis; [9]
  inhibition at 0.5 ppm: 15%
Gaeumannomyces graminis; 0.50 ppm
  Actual fungal growth inhibition rate (%): 9%
[1]; [5]
  inhibition at 0.13 ppm: 48%
Fusarium fujikuroi; Fusarium fujikuroi, 0.002 ppm, read-out: Actual fungal growth inhibition rate (%)
  inhibition at 0.002 ppm: 0%
Fusarium fujikuroi; Fusarium fujikuroi, 0.01 ppm, read-out: Actual fungal growth inhibition rate (%)
  inhibition at 0.01 ppm: 10%
Glomerella cingulata; [6]
  inhibition at 0.5 ppm: 46%
Penicillium italicum; Penicillium italicum, used alone, 0.50 ppm, read-out: Actual fungal growth inhibition rate (%)
  inhibition at 0.5 ppm: 90%
Microdocum nivale; 0.03 ppm, read-out: Actual fungal growth inhibition rate (%)
  inhibition at 0.03 ppm: 65%

## COc1ccnc(C(=O)N[C@H]2COC(=O)[C@H](Cc3ccccc3)[C@@H](OC(=O)C(C)C)[C@H](C)OC2=O)c1OCOC(=O)C(C)C [Fenpicoxamid, fenpicoxamid]
Cercospora beticola; 0.04 ppm
  Actual growth inhibition rate: 28%
Cercospora beticola; 0.2 ppm
  Actual growth inhibition rate: 59%
Cercospora beticola; 1.0 ppm
  Actual growth inhibition rate: 60%
Cercospora beticola; 5.0 ppm
  Actual growth inhibition rate: 100%

## Cn1cc(C(=O)Nc2ccccc2-c2cc(F)c(F)c(F)c2)c(C(F)F)n1 [Fluxapyroxad, fluxapyroxad, reference compound]
Gaeumannomyces graminis; 0.10 ppm
  Actual fungal growth inhibition rate (%): 0%
Gaeumannomyces graminis; 1.56 ppm
  Actual fungal growth inhibition rate (%): 0% and 9%

## CO/C=C(/C(=O)OC)c1ccccc1Oc1cc(Oc2ccccc2C#N)ncn1 [Azoxystrobin, azoxystrobin, reference compound]
[2]; 1.25 g/ha
  Actual controlling rate: 47%

## COC(=O)C(O)(Cn1cncn1)c1ccc(Oc2ccc(Cl)cc2)cc1C(F)(F)F (stereo not drawn) [Azole derivative I-122]
Fusarium graminearum
  Actual fungal growth inhibition rate (%): 83%
Pyrenophora graminea; 0.13 ppm
  Actual fungal growth inhibition rate (%): 75%
Pyrenophora graminea; 0.50 ppm
  Actual fungal growth inhibition rate (%): 82%
Gaeumannomyces graminis; 0.01 ppm
  Actual fungal growth inhibition rate (%): 0%
Gaeumannomyces graminis; 0.03 ppm
  Actual fungal growth inhibition rate (%): 32%
Gaeumannomyces graminis; 0.13 ppm
  Actual fungal growth inhibition rate (%): 70% and 57%
Gaeumannomyces graminis; 0.31 ppm
  Actual fungal growth inhibition rate (%): 96%
Gaeumannomyces graminis; 0.50 ppm
  Actual fungal growth inhibition rate (%): 97%
Gaeumannomyces graminis; 1.25 ppm
  Actual fungal growth inhibition rate (%): 96%
[1]; 0.13 ppm
  Actual fungal growth inhibition rate (%): 0%
[1]; 0.50 ppm
  Actual fungal growth inhibition rate (%): 5%
Glomerella cingulata; used alone, 0.01 ppm
  Actual fungal growth inhibition rate (%): 8%
Glomerella cingulata; used alone, 0.03 ppm
  Actual fungal growth inhibition rate (%): 14%
Glomerella cingulata; used alone, 0.13 ppm
  Actual fungal growth inhibition rate (%): 45%
Glomerella cingulata; used alone, 0.50 ppm
  Actual fungal growth inhibition rate (%): 82%
Microdocum nivale; 0.01 ppm
  Actual fungal growth inhibition rate (%): 0%
Microdocum nivale; 0.03 ppm
  Actual fungal growth inhibition rate (%): 0%
Microdocum nivale; 0.13 ppm
  Actual fungal growth inhibition rate (%): 4%

## CON(C(=O)c1cn(C)nc1C(F)F)C(C)Cc1c(Cl)cc(Cl)cc1Cl (stereo not drawn) [Pydiflumetofen, pydiflumetofen, reference compound]
[2]; 0.63 g/ha
  Actual controlling rate: 11%
[2]; 1.25 g/ha
  Actual controlling rate: 44%
[2]; 2.5 g/ha
  Actual controlling rate: 44%
[2]; 5 g/ha
  Actual controlling rate: 67%
[2]; 10 g/ha
  Actual controlling rate: 83%

## Cn1cc(C(=O)Nc2ccc(F)cc2-c2ccc(Cl)c(Cl)c2)c(C(F)F)n1 [Bixafen, bixafen]
Fusarium graminearum; used alone, 0.10 ppm
  Actual fungal growth inhibition rate (%): 6% and 0%
Pyrenophora graminea; 1.56 ppm
  Actual fungal growth inhibition rate (%): 75%
[1]; 0.03 ppm
  Actual fungal growth inhibition rate (%): 14%
Fusarium fujikuroi; 0.13 ppm
  Actual fungal growth inhibition rate (%): 13%
Fusarium fujikuroi; 0.50 ppm
  Actual fungal growth inhibition rate (%): 19%
Microdocum nivale; 0.10 ppm
  Actual fungal growth inhibition rate (%): 0%

## COC(=O)C(O)(Cn1cncn1)c1ccc(Oc2ccc(C(F)(F)F)cc2)cc1Cl (stereo not drawn) [Azole derivative I-23]
Fusarium graminearum
  Actual fungal growth inhibition rate (%): 79%
Pyrenophora graminea; 0.08 ppm
  Actual fungal growth inhibition rate (%): 73%
Pyrenophora graminea; 0.13 ppm
  Actual fungal growth inhibition rate (%): 81%
Pyrenophora graminea; 0.31 ppm
  Actual fungal growth inhibition rate (%): 92%
Pyrenophora graminea; 0.50 ppm
  Actual fungal growth inhibition rate (%): 91%
Pyrenophora graminea; 1.25 ppm
  Actual fungal growth inhibition rate (%): 95%
Gaeumannomyces graminis; 0.01 ppm
  Actual fungal growth inhibition rate (%): 0%
Gaeumannomyces graminis; 0.03 ppm
  Actual fungal growth inhibition rate (%): 38%
Gaeumannomyces graminis; 0.08 ppm
  Actual fungal growth inhibition rate (%): 92%
Gaeumannomyces graminis; 5.00 ppm
  Actual fungal growth inhibition rate (%): 94%
[1]; 0.03 ppm
  Actual fungal growth inhibition rate (%): 0%
[1]; 0.13 ppm
  Actual fungal growth inhibition rate (%): 0%
Glomerella cingulata; used alone, 0.03 ppm
  Actual fungal growth inhibition rate (%): 9%
Glomerella cingulata; used alone, 0.13 ppm
  Actual fungal growth inhibition rate (%): 31%
Glomerella cingulata; used alone, 0.50 ppm
  Actual fungal growth inhibition rate (%): 61%
Penicillium italicum; used alone, 0.01 ppm
  Actual fungal growth inhibition rate (%): 6%
Penicillium italicum; used alone, 0.03 ppm
  Actual fungal growth inhibition rate (%): 12%
Penicillium italicum; used alone, 0.13 ppm
  Actual fungal growth inhibition rate (%): 35%
Penicillium italicum; used alone, 0.50 ppm
  Actual fungal growth inhibition rate (%): 52% and 43%
Microdocum nivale; 0.01 ppm
  Actual fungal growth inhibition rate (%): 0%
Microdocum nivale; 0.13 ppm
  Actual fungal growth inhibition rate (%): 4% and 10%
Microdocum nivale; 0.50 ppm
  Actual fungal growth inhibition rate (%): 27% and 24%

## CCCN(CC)CC1COC2(CCC(C(C)(C)C)CC2)O1 (stereo not drawn) [Spiroxamine, spiroxamine, reference compound]
Pyrenophora graminea; Pyrenophora graminea, 0.01 ppm, read-out: Actual fungal growth inhibition rate (%)
  inhibition at 0.01 ppm: 0%
Pyrenophora graminea; Pyrenophora graminea, 0.03 ppm, read-out: Actual fungal growth inhibition rate (%)
  inhibition at 0.03 ppm: 0%
Gaeumannomyces graminis; [12]
  inhibition at 0.002 ppm: 0%
Gaeumannomyces graminis; [8]
  inhibition at 0.13 ppm: 0%

## O=C(NCCc1ncc(C(F)(F)F)cc1Cl)c1ccccc1C(F)(F)F [Fluopyram, fluopyram, reference compound]
Fusarium fujikuroi; Fusarium fujikuroi, 0.03 ppm, read-out: Actual fungal growth inhibition rate (%)
  inhibition at 0.03 ppm: 6%
Fusarium fujikuroi; Fusarium fujikuroi, 0.50 ppm, read-out: Actual fungal growth inhibition rate (%)
  inhibition at 0.5 ppm: 21%
Glomerella cingulata; [11]
  inhibition at 0.13 ppm: 3%
Glomerella cingulata; [6]
  inhibition at 0.5 ppm: 9%
